One assay has as its system calf thymus DNA. As to the kind of experiment: DNA binding by visible absorption and CD spectra of DNA (P)-drug complex. The conditions noted are these: mole ratio DNA (P)/analogue = 10:1; 3b, 4b and 5b compared; 1.0×10^-5 M, pH 7. The text has this: In FIG. 1, absorption (top) and circular dichroism (bottom) spectra in 0.01 M phosphate buffer (pH7) containing EDTA (10^-5 M) and Me2 SO (5%): 3b (...), 4b (---), 5b (--). Concentration of drug in each case was 1.0×10^-5 M. In this respect, they are almost indistinguishable from the known analogue 7-methoxyactinomycin D (5b), whose structure and physical properties we have previously reported. The absorption spectra of all these analogues in aqueous buffer are also almost superimposable. […] The absorption spectrum of the analogues above 240 nm is mainly due to the electronic configuration of the tricyclic chromophore. The CD spectrum in the same wavelength region is an indicator of peptide conformation in actinomycin analogues, because it is the peptide lactone ring that confers optical activity on the nearly planar chromophore. The nature of the CD spectra (3b, 4b and 5b) asserts that in these analogues there is an identical relationship between the chromophores and peptide lactones. This relationship is very important, because during binding to DNA, AMD and some analogues are known to rely on the cooperative role between the chromophore and the peptide lactones for their highly specific DNA-binding property.
Any change in the configurations of the peptide lactones on binding to DNA is generally expressed in the CD spectra of the analogue-DNA complexes. […] The changes in the visible absorption spectra of 3b, 4b and 5b and also their CD spectra observed after adding calf thymus DNA [mole ratio of DNA (P)/analogue=10:1] are identical (FIG. 2). In FIG. 2, the absorption (top) and CD spectra of the DNA (P)-drug complex (ratio 10:1). Concentrations, buffer and line types are as in FIG. 1.

For the next assay, the system named is DNA. As to the kind of experiment: DNA-binding mode, covalent and noncovalent (statements).

The structures appear in SMILES notation.

For the compound `Cc1c2oc3c(C)c(OCC4CO4)cc(C(=O)N[C@@H]4C(=O)N[C@H](C(C)C)C(=O)N5CCC[C@H]5C(=O)N(C)CC(=O)N(C)[C@@H](C(C)C)C(=O)O[C@@H]4C)c3nc-2c(C(=O)N[C@@H]2C(=O)N[C@H](C(C)C)C(=O)N3CCC[C@H]3C(=O)N(C)CC(=O)N(C)[C@@H](C(C)C)C(=O)O[C@@H]2C)c(N)c1=O` (stereo partly shown) [Compound 3b, 7-(2,3-Epoxypropoxy)actinomycin D], the “changes in visible absorption and CD spectra after adding calf thymus DNA” value in the assay with calf thymus DNA is on record as “identical”. Also, the “covalent binding to DNA” value with DNA (37° C. or higher, or longer incubation (~20 h)) is listed as “can bind covalently to DNA”. In addition, the “DNA-binding property relative to AMD” value in the assay with DNA (ambient temperature) is recorded as “closely parallel to AMD”.
For the compound `Cc1c2oc3c(C)c(OCC(O)CO)cc(C(=O)N[C@@H]4C(=O)N[C@H](C(C)C)C(=O)N5CCC[C@H]5C(=O)N(C)CC(=O)N(C)[C@@H](C(C)C)C(=O)O[C@@H]4C)c3nc-2c(C(=O)N[C@@H]2C(=O)N[C@H](C(C)C)C(=O)N3CCC[C@H]3C(=O)N(C)CC(=O)N(C)[C@@H](C(C)C)C(=O)O[C@@H]2C)c(N)c1=O` (stereo partly shown) [Compound 4b, 7-(2,3-Dihydroxypropoxy) actinomycin D], the “changes in visible absorption and CD spectra after adding calf thymus DNA” value with calf thymus DNA is “identical”.

(Values after patent publication US4514330A, “Carbon-7-substituted atinomycin D analogue” (Trustees of Boston University, priority 1983, dated 1985).)
